Data as given in patent publication US10858422B2, “Methods for treating systemic lupus erythematosus with an anti-apolipoprotein B antibody” (Abcentra, LLC, priority 2016, dated 2020).
Marks after values point to notes of the source that are not given here.

Tests used:
[1] = test system: MRL/lpr ApoE−/− mice; experiment: Flow cytometry of blood, spleen and lymph node cells after oral immunization; format: in vivo, mouse; conditions: 30 μg/ml
[2] = test system: human PBMC; experiment: Death receptor activation of human PBMC: release of soluble death receptors, apoptosis; format: cell-based; conditions: for release of Fas into culture medium / release of TNF-R1: healthy donor PBMC, Fas ligand 0.5 μg/ml, IL-1β 10 ng/ml, TNF 10 ng/ml, LPS 10 μg/ml
From the text: PBMCs from SLE patients (n=6, x female and x male, age x+/−x years) and matched healthy controls (n=6, x female and x male, age x+/−x years) as well as from a healthy donor were isolated using FicollPaque Plus (GE healthcare, Waukesha, Wis., USA) density gradient centrifugation according to manufacturer's instructions. The cells from SLE patients and controls were resuspended in 40% autologous serum, 40% RPMI 1640 medium (Thermo Fisher Scientific, Waltham, Mass., USA) and 20% dimethyl sulfoxide (Sigma Aldrich, St. Louis, […]., USA) and frozen in liquid nitrogen.
(§1) Cells from healthy donors were seeded freshly at a density of 0.5×10^6 cells per well in complete RPMI (10 U/ml Penicillin/streptomycin, 1% L-glutamine, 1% sodium pyruvate, 1% Hepes and 0.1% mercaptoethanol) with 2% FBS (HyClone South Logan, Utah, USA). For death receptor activation, IL-1β, soluble Fas ligand, TNF (Peprotech, Rocky Hill, N.J., USA) and LPS (Sigma Aldrich) were used at a concentration of 10 ng/ml, 0.5 μg/ml, 10 ng/ml and 10 μg/ml respectively.
as §1, with “from a” for “from”, “donor” for “donors”, “TNFα” for “TNF”
Cell supernatants from death receptor activated PBMCs from a healthy donor and SLE patients/controls were used for measurement of soluble Fas, TNF-R1 and TRAIL-R2 with a magnetic bead system multiplex assay (R&D Systems, Minneapolis, Minn., USA) obtained by Luminex machine (Bio-Rad). For SLE patients and controls, TNF-R1 concentration was measured with ELISA (Abcam) according to manufacturer's recommendations.

[3] = test system: Spleen T-cells from gld.apoE−/− mice; experiment: Cytokine production from spleen T-cells activated by CD3/CD28; format: in vivo, mouse; conditions: Avg; for IFN-γ production / IL-6 production / IL-10 production / IL-12 (p70) production: Normal Diet; for TNFα Production from Spleen T-cells: Western Diet
Experimental: Lymph nodes and spleen were harvested and weighed. Splenocytes were isolated and analyzed for T-regulatory cell populations by immunofluorescence staining and flow cytometry. Splenocytes were also cultured and T-cells activated in vitro by Mouse T-Activator CD3/CD28. Production of cytokines INF-γ, IL-6, IL-10, IL-12, and […] by activated T-cells were assessed with immunoassays.
CVX-12 immunization is hypothesized to impact atherosclerosis via modulation of T-cell cytokine release. Thus cytokine release by cultured splenocytes activated by CD3 and CD28 was assessed for the cytokines IFNγ, IL-6, IL-10, IL-12 (p70), and TNFα (Tables 6-12). CVX-12 immunization increased IL-6 and IL-10 cytokine release from spleen T-cells in apoE^−/− mice. […] IL-10 release from gld.apoE^−/− splenocytes was decreased by CVX-12 immunization of gld.apoE^−/− mice on western diet.

[4] = test system: gld.apoE−/− mice; experiment: Relative anti-P210 IgM/IgG antibody levels in serum (ELISA); format: in vivo, mouse; conditions: normal diet (ND), ± SEM
Experimental: Each animal dosed with a test article received subcutaneous primary immunization in the dorsal interscapular area at Day 0 (7 weeks of age), followed by a booster on Day 21 and 35 (10 and 12 weeks of age). CVX-3-84 was used to dose ApoE^−/− (n=20), gld mice (n=20). CVX-3-123 was used to dose gld.ApoE^−/− (n=30 on high cholesterol chow; n=30 on normal chow diet).
20 gld.ApoE^−/− mice in the positive control group received an oral dose of rosiglitazone at 10 mg/kg/day in normal chow starting on Day 0 (7 weeks of age) and continuing for the duration of the study period. Mice receiving Rosiglitazone were sacrificed at Day 126 (25 weeks of age).
Serum and urine was collected at day 63 of the study (16 weeks of age). Serum collected at day 63 of the study was analyzed for anti-P210 IgM and IgG antibodies. Levels of oxidized phospholipid was also measured in gld.apoE^−/− mice maintained on normal diet.
Serum and urine was collected at euthanasia. Endpoint serum was analyzed for anti-nuclear antibody (ANA) titers, total cholesterol, triglycerides, anti-P210 IgM antibodies, and anti-P210 IgG antibodies. Endpoint serum from gld.ApoE^−/− animals maintained on normal diet was also analyzed for anti-cardiolipin antibodies. Anti-nuclear antibody titers were tested using the NOVA-lite Hep2 ANA assay, and serum dilutions of 1:100, 1:1000, 1:10000, 1:30000, and 1:90000 were tested for nuclear-localized antibody reactivity to human epithelial cells. Reactivity was detected using FITC-conjugated goat anti-mouse IgG antibody. ANAs were scored based on the presence or absence of antibody signal at each titer. Total cholesterol was assessed using Cholesterol E reagent according to the manufacturer's protocol. Triglyceride levels were assessed with Triglyceride Reagent and with a glycerol standard. Anti-P210 antibodies were detected by ELISA using reconstituted P210 peptide.

For CTB, the “central memory T cells in lymph node” value [1] was 34.5±10.6%, the “central memory helper T cells (CD3+CD4+CD62L+CD44int-hi) in spleen” value [1] was 19.4±5.2% and the “cytolytic T cell populations (CD3+CD8+CD62L+CD44int-hi) in spleen” value [1] was 18.2±3.7%.

With “IL-1β: cytokine stimulus, 10 ng/ml [reference compound]” the “release of Fas into culture medium” value [2] was “no effect” and the “release of TNF-R1” value [2] was “stimulated”.

In the case of `CN(CCOc1ccc(CC2SC(=O)NC2=O)cc1)c1ccccn1` (stereo not shown) [Rosiglitazone], the IFN-γ production ([3]; Stimulated) is reported as 11419.9 pg/mL, the IL-6 production ([3]; Stimulated) is reported as 385.0* pg/mL and the IL-10 production ([3]; Stimulated) is reported as 1528.3 pg/mL. For the same molecule, the “IL-12 (p70) production” value ([3]; Stimulated) was 44.7 pg/mL, the IFN-γ production ([3]; Unstimulated) was 24.2* pg/mL and the IL-6 production ([3]; Unstimulated) was 255.9* pg/mL. For the same molecule, the IL-10 production ([3]; Unstimulated) was 196.0 pg/mL, the “IL-12 (p70) production” value ([3]; Unstimulated) was 89.2 pg/mL and the “TNFα Production from Spleen T-cells” value ([3]; Stimulated (CD3/CD28)) was 39.5 pg/mL. The “TNFα Production from Spleen T-cells” value ([3]; Unstimulated) was 8.9 pg/mL, the “anti-P210 IgG” value ([4]; Endpoint) was 0.68 ± 0.07 OD at 405 nm and the “anti-P210 IgM” value ([4]; Endpoint) was 0.42 ± 0.06 ^a, c OD at 405 nm. The “anti-P210 IgG” value ([4]; Midpoint) was 0.68 ± 0.07 OD at 405 nm and the “anti-P210 IgM” value ([4]; Midpoint) was 0.64 ± 0.03 OD at 405 nm.

For TNF-α [reference compound], the “release of Fas into culture medium” value [2] was “no effect” and the “release of TNF-R1” value [2] was “no effect”.

B1: Fas ligand: soluble Fas ligand used for death receptor activation of PBMC (protein)
chain: PSPPPEKKELRKVAHLTGKSNSRSMPLEWEDTYGIVLLSGVKYKKGGLVINETGLYFVYSKVYFRGQSCNNLPLSHKVYMRNSKYPQDLVMMEGKMMSYCTTGQMWARSSYLGAVFNLTSADHLYVNVSELSLVNFEESQTFFGLYKL
B1 was tested, and the “increase in the release of FAS” value ([2]; PBMCs from SLE patients) was 73%, the “frequency of apoptotic lymphocytes” value ([2]; PBMCs from healthy controls (not in PBMCs from SLE patients)) was “increased” and the “release of Fas into culture medium” value [2] was “stimulated”. The “release of TNF-R1” value [2] was “stimulated”.
